Legend:
HCC = experiment: Response assessment; format: in vivo, human; conditions: of 11 HCC patients; 3 based solely on symptomatic deterioration
[1] = cited from earlier work
[2] = Safety and tolerability, dose-limiting toxicities; format: in vivo, human; conditions: for Dose-limiting toxicity, hyperbilirubinemia (number of patients): days 1–8
AAG and albumin = conditions: bound to both AAG and albumin; cited from earlier work

In the case of `CS(=O)(=O)c1ccc(C(=O)Nc2ccc(Cl)c(-c3ccccn3)c2)c(Cl)c1` [vismodegib], the “HCC patients with progressive disease” value (HCC) is given as “nine”, the “Cmax interpatient coefficient of variation” value [1] is given as about 37.4% and the “PK variability explained by AAG levels” value [1] is given as over 70%. For the same compound, the “AEs grade 3 or 4 in severity” value ([2]; all cohorts) was 67.7%, the “Total patients who experienced DLTs of hyperbilirubinemia” value ([2]; all cohorts, 31 patients) was “three” and the “Patients who experienced at least one AE” value ([2]; all groups, 31 patients) was 96.8%. The “Adverse event frequency: abdominal pain” value ([2]; all patients) was 22.6%, the “Adverse event frequency: decreased appetite” value ([2]; all patients) was 22.6% and the “Adverse event frequency: dysgeusia” value ([2]; all patients) was 22.6%. For the same compound, the “Adverse event frequency: fatigue” value ([2]; all patients) was 67.7%, the “Adverse event frequency: muscle spasms” value ([2]; all patients) was 22.6% and the “Adverse event frequency: nausea” value ([2]; all patients) was 35.5%. The “Adverse event frequency: vomiting” value ([2]; all patients) was 22.6%, the “Serious AE: abdominal pain” value ([2]; all patients (2 patients)) was 6.5% and the “Serious AE: hyperbilirubinemia” value ([2]; all patients (2 patients)) was 6.5%. The “Serious AE: upper gastrointestinal hemorrhage” value ([2]; all patients (2 patients)) was 6.5%, the “Patients who experienced serious AEs” value ([2]; all patients (16 patients)) was 51.6% and the “AEs grade 3 or 4 in severity” value ([2]; control cohort) was 44.4%. The “AEs grade 3 or 4 in severity” value ([2]; mild cohort) was 75%, the “Patients who experienced serious AEs” value ([2]; mild cohort (4 patients)) was 50% and the “Adverse events leading to withdrawal of vismodegib: intracranial bleed” value ([2]; mild cohort n = 8) was 1 (intracranial bleed). For the same compound, the “Deaths due to progression of disease (number of patients)” value (“Deaths due to progression of disease” below) ([2]; mild cohort n = 8) was 1, the “Dose-limiting toxicity, hyperbilirubinemia (number of patients)” value ([2]; mild cohort n = 8, oral 150 mg daily) was 0 and the “AEs grade 3 or 4 in severity” value ([2]; moderate cohort) was 87.5%. For the same compound, the “Patients who experienced serious AEs” value ([2]; moderate cohort (6 patients)) was 75%, the “Adverse events leading to withdrawal of vismodegib: GI bleeds” value ([2]; moderate cohort n = 8) was 2 and the “Adverse events leading to withdrawal of vismodegib: hyperbilirubinemia” value ([2]; moderate cohort n = 8) was 1. For the same compound, the “Deaths due to progression of disease” value ([2]; moderate cohort n = 8) was 3, the “Patients who experienced serious AEs” value ([2]; normal cohort (3 patients)) was 33.3% and the “Adverse events leading to withdrawal of vismodegib” value ([2]; normal cohort n = 9) was 0. The “Deaths due to progression of disease” value ([2]; normal cohort n = 9) was 0, the “Dose-limiting toxicity, hyperbilirubinemia (number of patients)” value ([2]; normal cohort n = 9, oral 150 mg daily) was 0 and the “AEs grade 3 or 4 in severity” value ([2]; severe cohort) was 66.7%. For the same compound, the “Patients who experienced serious AEs” value ([2]; severe cohort (3 patients)) was 50%, the “Adverse events leading to withdrawal of vismodegib: fatigue” value ([2]; severe cohort n = 6) was 1 and the “Adverse events leading to withdrawal of vismodegib: hyperbilirubinemia” value ([2]; severe cohort n = 6) was 2. The “Adverse events leading to withdrawal of vismodegib: hyponatremia” value ([2]; severe cohort n = 6) was 1, the “Adverse events leading to withdrawal of vismodegib: leukocytosis” value ([2]; severe cohort n = 6) was 1 and the “Deaths due to progression of disease” value ([2]; severe cohort n = 6) was 1. The Plasma protein bound (AAG and albumin) was “greater than 98%”, the “Percentage of dose excreted in urine over a 24-h interval” value (all patients, regardless of hepatic function, day 8) was under 1% and the “Renal clearance (CLR)” value (patients with hepatic impairment compared to normal hepatic function) was “lower”.
